Source: US11617733B2, “Bicyclic compound and use thereof for medical purposes” (ONO PHARMACEUTICAL CO., LTD., priority 2009, dated 2023)

Legend:
mouse FP receptor = biological target: T1, mouse FP receptor (Mus musculus, UniProt P43117); test: FP agonist activity (intracellular calcium concentration) in FP-CHO cells; type: cell-based; conditions: for EC50: FP-CHO cells, intracellular calcium concentration, read-out: Agonist activity on various prostanoid receptors: EC50 value, FP
T1 construct: expressed in transfected cells; host or cells: CHO cells (FP-CHO)
T1 sequence (P43117 whole entry): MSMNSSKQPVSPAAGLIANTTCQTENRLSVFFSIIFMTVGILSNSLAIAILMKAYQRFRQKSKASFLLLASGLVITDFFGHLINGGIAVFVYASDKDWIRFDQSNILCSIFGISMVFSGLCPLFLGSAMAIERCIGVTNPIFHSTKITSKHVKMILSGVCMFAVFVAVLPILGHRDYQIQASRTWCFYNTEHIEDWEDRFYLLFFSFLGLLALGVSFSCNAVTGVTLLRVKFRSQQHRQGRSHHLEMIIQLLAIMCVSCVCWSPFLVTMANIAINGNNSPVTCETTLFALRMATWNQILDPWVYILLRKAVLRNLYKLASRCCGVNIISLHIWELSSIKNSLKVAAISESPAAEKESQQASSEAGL
From the text: (§1) (1-1) Measurement of Agonist Activity on Various Mouse Prostanoid Receptors
(§2) Using CHO cells (FP-CHO, EP1-CHO and IP-CHO, respectively) in which various mouse prostanoid receptors were forcibly expressed, respectively, agonist activity of test compounds on various prostanoid receptors was studied employing an intracellular calcium concentration regarding FP and EP1, and an intracellular cyclic AMP (hereinafter, abbreviated as cAMP) production amount regarding IP, as an index.
(§3) The test compound and a control substance (PGE2 and iroprost) were dissolved with dimethyl sulfoxide (DMSO) to prepare a 10 mmol/L solution. Regarding the prepared 10 mmol/L solution, upon use, the 10 mmol/L solution was thawed, stepwisely-diluted using DMSO, and diluted with a buffer solution for measurement or a buffer solution for measurement 2, which was subjected to an experiment.
(§4) Cells forcibly expressing various mouse prostanoid receptors were standing-cultured at 37° C. in the presence of 5% CO2 using an α-MEM medium (Sigma) (for culturing FP-CHO and EP1-CHO) containing inactivated (56° C., 30 minutes) 9.8 vol % dialysed-FBS (Invitrogen) and penicillin-streptomycin-glutamine (GIBCO-BRL), or nucleic acid-containing α-MEM (Sigma) (for culturing IP-CHO) containing inactivated (56° C., 30 minutes) 9.8 vol % dialysed-FBS (Invitrogen) and penicillin-streptomycin glutamine (Invitrogen). Subculturing was performed by the following method.
(§5) The medium was removed, and washed with a phosphate-buffered physiological saline not containing Ca^2+ and Mg^2+ two times. A suitable amount of trypsin-EDTA (Invitrogen) was added, this was incubated at 37° C. for about 3 minutes, cells were peeled, and a medium having a volume which is 10-fold a volume of trypsin-EDTA was added to stop an enzymatic reaction. After cells were recovered (120 g) into a centrifuging tube, and centrifuged at room temperature for 3 minutes, the supernatant was removed. Cells were suspended in a suitable amount of a medium, and seeded in a culturing flask.
(§6) (1-2) Measurement of FP and EP1 Agonist Activity (Measurement of Intracellular Calcium Concentration)
(§7) Regarding FP-CHO and EP1-CHO, by the same method as that of subculturing, cells were peeled and suspended and, before two days from measurement, the suspension was seeded on a 96-well UV plate so that the cell number per well became 1.0×10^4, and standing-cultured at 37° C. in the presence of 5% CO2. On the measurement day, after the medium was removed from each well of the 96-well UV plate, each well was washed with a phosphate-buffered physiological saline not containing Ca^2+ and Mg^2+ once. To each well was added 100 μL of a medium containing 5 μmol/L fura 2-AM (DOJINDO), 2.5 mmol/L Probenecid (Sigma), 20 μmol/L indometacin (Sigma) and 10 mmol/L HEPES (Invitrogen), and this was incubated for about 60 minutes in a CO2 incubator. After completion of the incubation, the medium was removed, and this was washed with a buffer solution for measurement (Hank's balanced salt solution (Nissui Pharmaceutical Co., Ltd., 9.8 g of the present product was dissolved in 1 L distilled water) containing 0.1 or 1 w/v % bovine serum albumin, 2 μmol/L indometacin, 2.5 mmol/L Probenecid and 10 mmol/L HEPES-NaOH (pH 7.4)) two times. To each well was added 120 μL of a buffer solution for measurement, and this was allowed to stand in a CO2 incubator for 30 minutes, and stabilized, which was subjected to an experiment.
(§8) The 96-well UV plate was set in a fluorescent spectral photometer (FDSS-3000, Hamamatsu Photonics K.K.), and an intracellular calcium concentration was measured. A buffered solution for measurement ([…]) containing an agonist at a variety of concentrations was added to perform a reaction. Measurement of an intracellular calcium concentration was performed by irradiating cells with excited light of 340 nm and 380 nm alternately, measuring a fluorescent intensity at 500 nm, and obtaining a fluorescent intensity ratio of 2-wavelength excitation. […]

mouse EP1 receptor = biological target: T2, mouse EP1 receptor (Mus musculus, UniProt P35375); test: EP1 agonist activity (intracellular calcium concentration) in EP1-CHO cells; type: cell-based; conditions: for EC50: EP1-CHO cells, intracellular calcium concentration, read-out: Agonist activity on various prostanoid receptors: EC50 value, EP1
T2 construct: expressed in transfected cells; host or cells: CHO cells (EP1-CHO)
T2 sequence (P35375 1-405): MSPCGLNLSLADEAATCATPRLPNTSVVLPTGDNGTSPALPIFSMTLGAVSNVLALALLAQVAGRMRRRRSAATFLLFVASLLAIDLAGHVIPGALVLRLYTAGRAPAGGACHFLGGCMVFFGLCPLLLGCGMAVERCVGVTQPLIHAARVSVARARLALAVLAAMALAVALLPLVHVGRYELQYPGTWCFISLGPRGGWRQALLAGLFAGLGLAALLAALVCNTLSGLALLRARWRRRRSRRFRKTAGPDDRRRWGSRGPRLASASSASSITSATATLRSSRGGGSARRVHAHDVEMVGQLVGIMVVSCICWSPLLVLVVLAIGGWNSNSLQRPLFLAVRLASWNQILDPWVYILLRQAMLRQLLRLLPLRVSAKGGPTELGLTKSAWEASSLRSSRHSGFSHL
From the text: as §1, §2, §3, §4, §5, §6, §7, §8

mouse IP receptor = biological target: T3, mouse IP receptor (Mus musculus, UniProt P43252); test: IP agonist activity (cAMP concentration) in IP-CHO cells; type: cell-based; conditions: for EC50: IP-CHO cells, cAMP production, read-out: Agonist activity on various prostanoid receptors: EC50 value, IP
T3 construct: expressed in transfected cells; host or cells: CHO cells (IP-CHO)
T3 sequence (P43252 whole entry): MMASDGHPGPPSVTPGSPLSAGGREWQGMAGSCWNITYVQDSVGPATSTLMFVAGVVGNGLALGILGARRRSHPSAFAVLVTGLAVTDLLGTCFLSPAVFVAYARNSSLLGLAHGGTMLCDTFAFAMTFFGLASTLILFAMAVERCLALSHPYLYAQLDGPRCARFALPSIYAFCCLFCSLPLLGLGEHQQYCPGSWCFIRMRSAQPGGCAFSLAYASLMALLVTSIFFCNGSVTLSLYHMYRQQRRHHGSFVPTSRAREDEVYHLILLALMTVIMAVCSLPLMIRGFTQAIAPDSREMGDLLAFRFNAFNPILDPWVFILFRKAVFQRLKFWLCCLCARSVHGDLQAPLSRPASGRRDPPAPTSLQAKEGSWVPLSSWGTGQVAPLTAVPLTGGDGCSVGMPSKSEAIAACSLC
From the text: as §1, §2, §3, §4, §5
(1-3) Measurement of IP Agonist Activity (Measurement of cAMP Concentration)
On the measurement day, a medium was removed, and IP-CHO was washed with a phosphate-buffered physiological saline containing 2 mmol/L EDTA and not containing Ca^2+ and Mg^2+ once. A suitable amount of a phosphate-buffered physiological containing 2 mmol/L EDTA and not containing Ca^2+ and Mg^2+ was added, this was incubated at 37° C. for about 10 minutes, cells were peeled, cells were recovered (500 g) into a centrifuging tube, and centrifuged at room temperature for 3 minutes, and the supernatant was removed.
Cells were suspended in a suitable amount of a buffer solution for measurement 1 (MEM medium (Invitrogen) containing 0.1 w/v % bovine serum albumin (Sigma) and 2 μmol/L diclofenac (Sigma)), and centrifuged at room temperature for 3 minutes at 500 g, and the supernatant was removed. Cells were suspended in a buffer solution for measurement 2 (MEM medium (Invitrogen) containing 0.1 w/v % bovine serum albumin (Sigma), 2 μmol/L diclofenac (Sigma) and 1 mmol/L 3-isobutyl-1-methylxanthine), and each 25 μL of the suspension was dispensed into a 96-well ½ area plate so that the cell number per well became 5.0×10^4. A buffer solution for measurement 2 (25 μL) containing an agonist at a variety of concentrations was added to perform a reaction at room temperature for 30 minutes. Measurement of a cAMP concentration was performed using the cAMP HTRF HiRange kit (CIS bio International). According to the two step protocol of the kit manual, each 25 μL of cAMP-D2 and cryptate diluted with a lysis buffer were added, and this was incubated at room temperature for 1 hour. After incubation for 1 hour, time resolution fluorescence at 620 nm and 660 nm when excited at 340 nm was measured using Analyst GF (Molecular Device), and a ratio (TRF ratio) was obtained, thereby, a cAMP concentration was calculated from a calibration line. […]

male dog (TOYO Beagle) = test: Intraocular pressure lowering action in dog after ocular instillation; type: in vivo
Protocol: (2-1) Intraocular Pressure Lowering Action
To one eye of a male dog (TOYO Beagle) which had been sufficiently acclimated in advance was ocular-instilled 30 μL of each test compound (compound of Example 16 (35), compound of Example 16 (3) and compound of Example 16(25)) which had been adjusted with a base (containing citrate buffer pH 6.5, 0.5% polysorbate 80, 1% propylene glycol, 0.01% benzalkonium chloride) to 0.01% (w/v) or 0.001% (w/v), respectively. The other eye was not treated. As a positive control compound, latanoprost which is the known compound was used.
Thereafter, an ocular surface anesthetic (Benoxil eye drops 0.4%, Santen Pharmaceutical Co., Ltd.) was subjected to ocular instillation to locally anesthetize eyes, and an intraocular pressure of each test compound before ocular instillation and after 2, 4, 6, 8, and 24 hours from ocular instillation was measured. An intraocular pressure was measured using a pneumatic applanation flat tonometer (Model 30 Classic, REICHERT). An intraocular pressure lowering rate (%) was calculated by the following equation. Intraocular pressure lowering rate (%)=(intraocular pressure value before ocular instillation−intraocular pressure value at each point)/(intraocular pressure value before ocular instillation)×100 [Mathematic 1]

[1] = tested on: male rabbit (NewZealandWhite); test: Aqueous humor protein concentration in rabbit after ocular instillation; type: in vivo; conditions: ocular instillation 30 μL, 0.1% (w/v), 0-8 hours
Protocol: (2-2) Assessment of Ocular Stimulating Property and Aqueous Humor Protein Concentration
To one eye of a male rabbit (NewZealandWhite, 2.0 to 3.0 kg) was ocular-instilled 30 μL of the compound of Example 16 (35), the compound of Example 16 (3) and the compound of Example 16 (25) which had been adjusted to 0.1% (w/v) with a base (containing citrate buffer pH 6.5, 0.5% polysorbate 80, 1% propylene glycol, 0.01% benzalkonium chloride), respectively. Thereafter, an aqueous humor in anterior chamber after 0, 1, 2, 4, 6 and 8 hours from ocular instillation was collected, and a protein concentration in the humor was measured. As a comparative compound, the aforementioned methyl ester of the compound of Example 12 described in Patent Literature 2 (i.e. compound of Example 10 described in Patent Literature 2) (hereinafter, abbreviated as Comparative Compound B in some cases) was used.
Regarding any test compound, a dose until a dissolution limit (150 to 1000 μg/mL) was administered and action of each active body was assessed.

Row | Compound | EC50 (mouse FP receptor) | EC50 (mouse EP1 receptor) | EC50 (mouse IP receptor) | Agonist activity on a FP receptor (in words) (mouse FP receptor; summary of Table 7) | Agonist activity on an EP1 receptor (in words) (mouse EP1 receptor; summary of Table 7) | Agonist activity on an IP receptor (in words) (mouse IP receptor; summary of Table 7) | Intraocular pressure lowering action compared with positive control latanoprost (in words) (male dog (TOYO Beagle)) | Action on protein concentration in aqueous humor (in words) [1]
1 | O=C(O)CCC[C@H]1CC[C@@H]2[C@@H](/C=C/[C@@H](O)COc3cc(F)ccc3F)[C@H](O)C[C@@H]2OC1 [Example 17 (25), 4-{(3S, 5aR, 6R, 7R, 8aS)-6-[(1E, 3R)-4-(2,5-difluorophenoxy)-3-hydroxy-1-buten-1-yl]-7-hydroxyoctahydro-2H-cyclopenta[b]oxepin-3-yl}butanoic acid] | 0.0024 µM | 0.857 µM | > 10 µM | – | – | – | – | –
2 | O=C(O)COC[C@H]1CC[C@@H]2[C@@H](/C=C/[C@@H](O)COc3cc(F)cc(Cl)c3)[C@H](O)C[C@@H]2OC1 [Example 29 (12), ({(3R, 5aR, 6R, 7R, 8aS)-6-[(1E,3R)-4-(3-chloro-5-fluorophenoxy)-3-hydroxy-1-buten-1-yl]-7-hydroxyoctahydro-2H-cyclopenta[b]oxepin-3-yl}methoxy)acetic acid] | 0.0071 µM | > 10 µM | > 10 µM | – | – | – | – | –
3 | O=C(O)CCC[C@H]1CC[C@@H]2[C@@H](/C=C/[C@@H](O)COc3ccccc3)[C@H](O)C[C@@H]2OC1 [Example 17 (23), 4-{(3S, 5aR, 6R, 7R, 8aS)-7-hydroxy-6-[(1E, 3R)-3-hydroxy-4-phenoxy-1-buten-1-yl]octahydro-2H-cyclopenta(b]oxepin-3-yl}butanoic acid] | 0.0083 µM | 0.1 µM | > 10 µM | – | – | – | – | –
4 | CC(C)OC(=O)CCC[C@H]1CC[C@@H]2[C@@H](/C=C/[C@@H](O)COc3cc(F)ccc3F)[C@H](O)C[C@@H]2OC1 [Example 16 (25), 2-Propanyl 4-{(3S, 5aR, 6R, 7R, 8aS)-6-[(1E, 3R)-4-(2,5-difluorophenoxy)-3-hydroxy-1-buten-1-yl]-7-hydroxyoctahydro-2H-cyclopenta[b]oxepin-3-yl}butanoate] | – | – | – | – | – | – | stronger intraocular pressure lowering action as compared with latanoprost | no action of raising a protein concentration in an aqueous humor
5 | O=C(O)CCC[C@H]1CC[C@@H]2[C@@H](/C=C/C(F)(F)COc3ccccc3)[C@H](O)C[C@@H]2OC1 [Example 32, 4-{(3S, 5aR, 6R, 7R, 8aS)-6-[(1E)-3,3-difluoro-4-phenoxy-1-buten-1-yl]-7-hydroxyoctahydro-2H-cyclopenta[b]oxepin-3-yl}butanoic acid] | 0.0016 µM | > 10 µM | > 10 µM | – | – | – | – | –

The next lines start with results.

Row | EC50 (mouse FP receptor) | EC50 (mouse EP1 receptor) | EC50 (mouse IP receptor) | Agonist activity on a FP receptor (in words) (mouse FP receptor; summary of Table 7) | Agonist activity on an EP1 receptor (in words) (mouse EP1 receptor; summary of Table 7) | Agonist activity on an IP receptor (in words) (mouse IP receptor; summary of Table 7) | Compound | Intraocular pressure lowering action compared with positive control latanoprost (in words) (male dog (TOYO Beagle)) | Action on protein concentration in aqueous humor (in words) [1]
6 | 0.0088 µM | > 10 µM | > 10 µM | – | – | – | Cc1cccc(OC[C@H](O)/C=C/[C@@H]2[C@H]3CC[C@H](CCCC(=O)O)CO[C@H]3C[C@H]2O)c1 [Example 17 (4), 4-{(3S, 5aR, 6R, 7R, 8aS)-7-hydroxy-6-[(1E, 3R)-3-hydroxy-4-(3-methylphenoxy)-1-buten-1-yl]octahydro-2H-cyclopenta[b]oxepin-3-yl}butanoic acid] | – | –
7 | – | – | – | has agonist activity | has agonist activity | has agonist activity | O=C(O)CCC[C@H]1CC[C@@H]2[C@@H](/C=C/[C@@H](O)COc3ccccc3)[C@H](O)C[C@@H]2O1 [Comparative Compound A, reference compound] | – | –
8 | 0.003 µM | 3.2 µM | > 10 µM | – | – | – | O=C(O)CCC[C@H]1CC[C@@H]2[C@@H](/C=C/[C@@H](O)COc3cccc(Cl)c3)[C@H](O)C[C@@H]2OC1 [Example 17 (3), 4-{(3S, 5aR, 6R, 7R, 8aS)-6-[(1E, 3R)-4-(3-chlorophenoxy)-3-hydroxy-1-buten-1-yl]-7-hydroxyoctahydro-2H-cyclopenta[b]oxepin-3-yl}butanoic acid] | – | –
